Results on four molecules are retold here after ChEMBL document CHEMBL5634118, “Inhibition of Son of Sevenless Homologue 1 (SOS1): Promising therapeutic treatment for KRAS-mutant cancers” (Eur J Med Chem, 2023).

SMILES strings stand for the structures.

For one series, the system named is K562. Description: cells. Particulars: Homo sapiens, K562, 72 h.
For series [1], the system named is MIA PaCa-2. Description: Antitumor activity against human MIA PaCa-2 cells xenografted in mouse model assessed as tumor growth inhibition at 50 mg/kg, po relative to control. The series is classed as functional. Particulars: read-out: TGI. (A xenograft is tissue or cells of one species grown in another, often human tumour cells in immunodeficient mice.)
Series [2] in a line: Half life in mouse. It counts as ADME, organism-based. To be noted: in vivo.
Series [3] in a line: Intrinsic clearance in mouse liver microsomes. It counts as ADME, Microsome. Particulars: read-out: CLH. In general terms: Microsomes from liver hold many membrane-bound enzymes, among them those of drug oxidation.
For series [4], the target named is T1, Son of sevenless homolog 1 (Homo sapiens, UniProt Q07889).
T1 sequence (Q07889 whole entry): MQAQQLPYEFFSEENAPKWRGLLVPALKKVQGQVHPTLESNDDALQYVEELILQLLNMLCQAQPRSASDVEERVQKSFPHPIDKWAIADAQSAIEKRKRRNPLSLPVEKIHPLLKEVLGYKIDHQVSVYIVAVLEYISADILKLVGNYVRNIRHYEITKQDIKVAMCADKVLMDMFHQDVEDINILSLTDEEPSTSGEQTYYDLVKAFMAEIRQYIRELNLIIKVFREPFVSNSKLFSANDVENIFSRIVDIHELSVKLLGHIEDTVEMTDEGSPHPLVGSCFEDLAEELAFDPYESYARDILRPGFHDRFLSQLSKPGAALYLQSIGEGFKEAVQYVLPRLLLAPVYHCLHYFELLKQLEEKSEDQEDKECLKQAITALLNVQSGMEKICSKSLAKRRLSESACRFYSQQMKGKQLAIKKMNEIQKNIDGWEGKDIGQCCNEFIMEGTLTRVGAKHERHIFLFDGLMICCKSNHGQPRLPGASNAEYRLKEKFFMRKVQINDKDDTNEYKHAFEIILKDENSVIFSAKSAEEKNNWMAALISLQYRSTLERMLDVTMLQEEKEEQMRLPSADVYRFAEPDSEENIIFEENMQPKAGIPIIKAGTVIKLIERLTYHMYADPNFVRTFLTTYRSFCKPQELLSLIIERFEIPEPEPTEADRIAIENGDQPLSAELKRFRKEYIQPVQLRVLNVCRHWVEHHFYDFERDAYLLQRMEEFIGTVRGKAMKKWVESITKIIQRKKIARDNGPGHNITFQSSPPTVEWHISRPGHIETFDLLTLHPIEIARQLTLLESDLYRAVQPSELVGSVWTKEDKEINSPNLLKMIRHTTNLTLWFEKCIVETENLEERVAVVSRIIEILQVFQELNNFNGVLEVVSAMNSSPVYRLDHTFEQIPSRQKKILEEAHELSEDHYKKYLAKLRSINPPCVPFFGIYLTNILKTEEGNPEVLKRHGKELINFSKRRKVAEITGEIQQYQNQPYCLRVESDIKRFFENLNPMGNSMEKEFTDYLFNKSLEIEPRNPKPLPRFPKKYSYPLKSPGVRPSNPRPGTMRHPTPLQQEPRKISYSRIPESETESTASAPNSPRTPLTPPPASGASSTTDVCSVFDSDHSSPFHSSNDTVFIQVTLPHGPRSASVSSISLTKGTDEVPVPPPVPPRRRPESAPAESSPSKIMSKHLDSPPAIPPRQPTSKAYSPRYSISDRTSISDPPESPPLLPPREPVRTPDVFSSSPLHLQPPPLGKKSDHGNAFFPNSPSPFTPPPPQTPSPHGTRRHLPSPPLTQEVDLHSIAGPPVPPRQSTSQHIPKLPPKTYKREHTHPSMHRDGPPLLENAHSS
Description: Inhibition of SOS1 in human Calu-1 cells assessed as reduction in pERK level incubated for 24 hrs by HTRF analysis. The series is classed as cell-based. For orientation: TR-FRET usually uses a lanthanide donor and a delayed reading to cut background.

Series [5] concerns MIA PaCa-2. Description: Antiproliferative activity against human MIA PaCa-2 cells assessed as reduction in cell growth measured after 48 hrs by MTT assay. It counts as functional, cell-based. Particulars: MIA PaCa-2, 48 h.
Series [6] concerns the target von Hippel-Lindau disease tumor suppressor/Son of sevenless homolog 1 (Homo sapiens, UniProt Q07889+P40337, G12S). Description: PROTAC activity at VHL/SOS1 in human NCI-H358 cells harboring KRAS G12S mutant assessed as induction of SOS1 degradation incubated for 24 hrs by immunoblotting analysis. The series is classed as cell-based.
In series [7] the target is von Hippel-Lindau disease tumor suppressor/Son of sevenless homolog 1 (Homo sapiens, UniProt Q07889+P40337, G12V). Description: PROTAC activity at VHL/SOS1 in human NCI-H358 cells harboring KRAS G12V mutant assessed as induction of SOS1 degradation incubated for 24 hrs by immunoblotting analysis. It counts as cell-based.
Sequence of von Hippel-Lindau disease tumor suppressor/Son of sevenless homolog 1 (Homo sapiens, UniProt Q07889+P40337, G12V) (P40337 whole entry, looked up, stated change not applied, one chain of several): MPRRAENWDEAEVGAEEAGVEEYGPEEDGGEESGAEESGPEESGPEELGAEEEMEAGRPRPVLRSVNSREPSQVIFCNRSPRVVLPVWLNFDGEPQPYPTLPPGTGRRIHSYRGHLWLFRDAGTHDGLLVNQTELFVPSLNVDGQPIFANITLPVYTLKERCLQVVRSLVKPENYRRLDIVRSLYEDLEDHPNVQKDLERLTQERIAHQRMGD
The test system of a further series is NCI-H460. Briefly: Antiproliferative activity against human NCI-H460 cells harboring KRAS […] mutant assessed as inhibition of cell proliferation incubated for 7 days by CellTiterGlo-3D proliferation assay. The series is classed as functional, cell-based. Particulars: NCI-H460, 168 h.
The test system of series [8] is NCI-H358. Description: Antitumor activity against human NCI-H358 cells harboring KRAS […] mutant xenografted in mouse model assessed as tumor growth inhibition at 10 mg/kg, ip administered once daily for 3 weeks relative to control. To be noted: NCI-H358, 504 h, read-out: TGI. The series is classed as functional.
Series [9] can be described thus: AUC in mouse at 10 mg/kg, ip by LC-MS analysis. The series is classed as ADME, organism-based. To be noted: in vivo.
The target of series [10] is von Hippel-Lindau disease tumor suppressor/Son of sevenless homolog 1 (Homo sapiens, UniProt Q07889+P40337, G13D). Briefly: PROTAC activity at VHL/SOS1 in human NCI-H358 cells harboring KRAS G13D mutant assessed as induction of SOS1 degradation incubated for 24 hrs by immunoblotting analysis. It counts as cell-based.
Sequence of von Hippel-Lindau disease tumor suppressor/Son of sevenless homolog 1 (Homo sapiens, UniProt Q07889+P40337, G13D) (P40337 whole entry, looked up, stated change not applied, one chain of several): as above
Series [11] deals with von Hippel-Lindau disease tumor suppressor/Son of sevenless homolog 1 (Homo sapiens, UniProt Q07889+P40337, G12C). Description: PROTAC activity at VHL/SOS1 in human NCI-H358 cells harboring KRAS G12C mutant assessed as induction of SOS1 degradation incubated for 24 hrs by immunoblotting analysis. The series is classed as cell-based.
Sequence of von Hippel-Lindau disease tumor suppressor/Son of sevenless homolog 1 (Homo sapiens, UniProt Q07889+P40337, G12C) (P40337 whole entry, looked up, stated change not applied, one chain of several): as above
Series [12] addresses von Hippel-Lindau disease tumor suppressor/Son of sevenless homolog 1 (Homo sapiens, UniProt Q07889+P40337, G12R). Briefly: PROTAC activity at VHL/SOS1 in human NCI-H358 cells harboring KRAS G12R mutant assessed as induction of SOS1 degradation incubated for 24 hrs by immunoblotting analysis. It counts as cell-based.
Series [13] can be described thus: Half life in mouse at 10 mg/kg, ip by LC-MS analysis. Particulars: in vivo. The series is classed as ADME, organism-based.
Series [14] concerns the target von Hippel-Lindau disease tumor suppressor/Son of sevenless homolog 1 (Homo sapiens, UniProt Q07889+P40337, G12D). Briefly: PROTAC activity at VHL/SOS1 in human NCI-H358 cells harboring KRAS […] mutant assessed as induction of SOS1 degradation incubated for 24 hrs by immunoblotting analysis. The series is classed as cell-based.
In a further series the test system is CAL-62. Briefly: Antiproliferative activity against human CAL-62 cells harboring KRAS G12R mutant assessed as inhibition of cell proliferation incubated for 7 days by CellTiterGlo-3D proliferation assay. To be noted: CAL-62, 168 h. The series is classed as functional, cell-based.
The subject of series [15] is NCI-H358. Briefly: Antitumor activity against human NCI-H358 cells harboring KRAS G12V mutant xenografted in mouse model assessed as tumor growth inhibition at 10 mg/kg, ip administered once daily for 3 weeks relative to control. It counts as functional. Particulars: NCI-H358, 504 h, read-out: TGI.
Series [16] concerns the target von Hippel-Lindau disease tumor suppressor/Son of sevenless homolog 1 (Homo sapiens, UniProt Q07889+P40337). Briefly: PROTAC activity at VHL/SOS1 in human NCI-H358 cells assessed as induction of SOS1 protein degradation incubated for 24 hrs by Immunoblot analysis. The series is classed as cell-based.
A short description of series [17]: Clearance in CD-1 mouse at 5 mg/kg, ip measured after 24 hrs by LC-MS/MS analysis. The series is classed as ADME, organism-based. To be noted: in vivo.
Series [18] has as its target T1, Son of sevenless homolog 1. Description: Binding affinity to SOS1 (unknown origin) assessed as inhibition constant by HTRF method.
The test system of series [19] is MIA PaCa-2. Briefly: Antitumor activity against human MIA PaCa-2 cells xenografted in CD-1 mouse assessed as tumor inhibition at 20 mg/kg, po BID for 22 days relative to control. It counts as functional. To be noted: MIA PaCa-2, 528 h, time 22 day, read-out: TGI.
In series [20] the target is T1, Son of sevenless homolog 1. Description: Inhibition of SOS1 (unknown origin) by HTRF assay.
Series [21] relates to MIA PaCa-2. Briefly: Antitumor activity against human MIA PaCa-2 cells xenografted in CD-1 mouse assessed as in tumor growth inhibition at 20 mg/kg, po BID for 22 days relative to control. It counts as functional. To be noted: MIA PaCa-2, 528 h, time 22 day, read-out: TGI.
Series [22] concerns MIA PaCa-2. Description: Antitumor activity against human MIA PaCa-2 cells xenografted in CD-1 mouse assessed as tumor growth inhibition at 20 mg/kg BID for 22 days relative to control. The series is classed as functional. Particulars: MIA PaCa-2, 528 h, time 22 day, read-out: TGI.
A short description of series [23]: Volume of distribution at steady state in CD-1 mouse at 5 mg/kg, ip measured after 24 hrs by LC-MS/MS analysis. The series is classed as ADME, organism-based. To be noted: in vivo.
Series [24] can be described thus: Oral bioavailability in CD-1 mouse at 20 mg/kg measured upto 24 hrs by LC/MS/MS analysis. It counts as ADME, organism-based. Particulars: in vivo.
Series [25] has as its target Epidermal growth factor receptor (Homo sapiens, UniProt P00533). Description: Inhibition of EGFR (unknown origin).
The test system of series [26] is MIA PaCa-2. Description: Antiproliferative activity against human MIA PaCa-2 cells harboring KRAS G12C mutant assessed as reduction in cell viability incubated for 72 hrs by MTT assay. To be noted: MIA PaCa-2, 72 h. The series is classed as functional, cell-based.
The nature of series [27]: Half life in CD-1 mouse at 20 mg/kg, po measured after 24 hrs by LC-MS/MS analysis. Particulars: in vivo. It counts as ADME, organism-based.

Sequence of von Hippel-Lindau disease tumor suppressor/Son of sevenless homolog 1 (Homo sapiens, UniProt Q07889+P40337, G12D) (P40337 whole entry, looked up, stated change not applied, one chain of several): as above
Sequence of von Hippel-Lindau disease tumor suppressor/Son of sevenless homolog 1 (Homo sapiens, UniProt Q07889+P40337, G12S) (P40337 whole entry, looked up, stated change not applied, one chain of several): as above
Sequence of von Hippel-Lindau disease tumor suppressor/Son of sevenless homolog 1 (Homo sapiens, UniProt Q07889+P40337, G12R) (P40337 whole entry, looked up, stated change not applied, one chain of several): as above
Sequence of von Hippel-Lindau disease tumor suppressor/Son of sevenless homolog 1 (Homo sapiens, UniProt Q07889+P40337) (P40337 whole entry, one chain of several): as the sequence (P40337 whole entry, looked up, stated change not applied, one chain of several) above
Sequence of Epidermal growth factor receptor (P00533 whole entry): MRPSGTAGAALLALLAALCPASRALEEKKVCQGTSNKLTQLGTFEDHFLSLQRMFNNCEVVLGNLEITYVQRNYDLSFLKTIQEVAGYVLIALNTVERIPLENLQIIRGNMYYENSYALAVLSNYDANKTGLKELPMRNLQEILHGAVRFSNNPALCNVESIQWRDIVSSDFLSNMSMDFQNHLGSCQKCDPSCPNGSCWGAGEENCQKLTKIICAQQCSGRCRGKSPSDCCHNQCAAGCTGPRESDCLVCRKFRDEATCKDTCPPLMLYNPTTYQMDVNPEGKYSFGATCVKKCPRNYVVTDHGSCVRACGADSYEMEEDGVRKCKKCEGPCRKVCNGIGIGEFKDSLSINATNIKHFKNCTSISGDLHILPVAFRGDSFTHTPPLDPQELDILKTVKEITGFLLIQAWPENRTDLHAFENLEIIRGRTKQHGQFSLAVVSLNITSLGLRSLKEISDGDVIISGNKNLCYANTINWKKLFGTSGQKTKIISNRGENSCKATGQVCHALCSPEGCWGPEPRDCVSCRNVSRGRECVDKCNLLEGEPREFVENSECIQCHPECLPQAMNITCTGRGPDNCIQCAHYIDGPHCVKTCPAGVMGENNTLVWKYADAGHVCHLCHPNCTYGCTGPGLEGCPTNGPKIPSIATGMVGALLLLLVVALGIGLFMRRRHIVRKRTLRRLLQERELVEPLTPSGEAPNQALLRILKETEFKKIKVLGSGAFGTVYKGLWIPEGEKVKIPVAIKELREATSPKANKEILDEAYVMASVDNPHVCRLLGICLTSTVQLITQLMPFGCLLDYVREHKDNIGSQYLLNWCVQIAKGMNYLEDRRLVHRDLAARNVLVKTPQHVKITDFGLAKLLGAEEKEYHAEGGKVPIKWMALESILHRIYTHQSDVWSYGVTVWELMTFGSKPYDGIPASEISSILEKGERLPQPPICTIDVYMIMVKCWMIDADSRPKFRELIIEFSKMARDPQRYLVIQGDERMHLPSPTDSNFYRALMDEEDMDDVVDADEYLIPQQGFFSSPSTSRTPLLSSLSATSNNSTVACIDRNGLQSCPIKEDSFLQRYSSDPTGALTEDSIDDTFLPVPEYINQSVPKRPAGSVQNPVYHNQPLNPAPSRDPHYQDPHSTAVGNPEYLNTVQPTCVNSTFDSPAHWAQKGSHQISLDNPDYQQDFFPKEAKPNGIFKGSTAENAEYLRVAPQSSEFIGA

The molecule `COc1cc2nc(C)nc(N[C@H](C)c3cc(N)cc(C(F)(F)F)c3)c2cc1O[C@H]1CCOC1` gave a concentration for half-maximal inhibition (IC50) in the series on K562 of 37 nM.

Take `Cc1nc(N[C@H](C)c2cccc(C(F)F)c2F)c2cc3c(cc2n1)OC[C@H]1CN(C(=O)C2(C#N)CC2)CCN31`: the inhibition in vivo at 50 mg/kg in the series with MIA PaCa-2 [1] was determined as 71%. The half-life in series [2] came to 67.4 min. Besides, the CLint scaled in series [3] was found to be 37.2 mL/min/kg. Also, the half-maximal inhibitory concentration (IC50) in series [4] amounted to 5 nM; in the series with MIA PaCa-2 [5], 178 nM.

Regarding `COc1cc2nc(C)nc(N[C@H](C)c3cc(N)cc(C(F)(F)F)c3)c2cc1C1CCN(C(=O)CCCCCC(=O)N[C@H](C(=O)N2C[C@H](O)C[C@H]2C(=O)N[C@@H](C)c2ccc(-c3scnc3C)cc2)C(C)(C)C)CC1`, the half-maximal degradation concentration (DC50) in series [6], in series [7], in series [10], in series [11], in [12] and in [14] was 8.41 nM throughout. In addition, in [16], the 50% degradation concentration (DC50) was 15.7 nM. The half-inhibitory concentration (IC50) in the series on NCI-H460 and in the series on CAL-62 was 6.97 nM throughout. The inhibition in vivo at 10 mg/kg in the series with NCI-H358 [8] and with NCI-H358 [15] was greater than 65% throughout. The area under the curve (AUC) in series [9] amounted to 14100 ng·h/mL. The half-life in [13] is 581 min.

For the molecule `COC(=O)N1CCN2c3cc4c(N[C@H](C)c5cccc(C(F)F)c5F)nnc(C)c4cc3OC[C@H]2C1`, the apparent clearance (CL/F) in series [17] is 1.7 mL/min/kg. Further, the Ki in [18] worked out at 3.9 nM. For the same molecule, the inhibition in vivo at 20 mg/kg in the series on MIA PaCa-2 [19] is 104%; in the series with MIA PaCa-2 [21], 87%; with MIA PaCa-2 [22], 42%. Besides, the IC50 is 1.1 nM in series [20], 1.6 nM in series [4], greater than 10 µM in series [25] and 43 nM in the series on MIA PaCa-2 [26]. The molecule also gave a Vdss in [23] of 330 mL/kg. Also, the bioavailability in series [24] turned out to be 65.8%. In series [27], this molecule gave a half-life of 384 min.

A word on the IC50: it is the concentration at which inhibition is half-maximal. A word on the half-life: it is the time needed for the level to fall by half in the phase considered. Low values mean fast loss, high ones slow loss. Broadly, the DC50 is the midpoint of the concentration-degradation curve. In general, AUC refers to concentration integrated over time. A word on the CL/F: it is clearance divided by bioavailability, as obtained after extravascular dosing. The Ki is a dissociation constant, usually derived from enzyme kinetics or from competition with a known ligand. Broadly, the bioavailability is the share of a dose that reaches the circulation, judged against a reference dose that is usually intravenous.
